Results as given in US6803372B2, “Spiro compounds” (Banyu Pharmaceutical Co., Ltd., priority 1999, dated 2004).

Row | melting point [°C] | SMILES
1 | 286 to 287 | O=C1NC2(CCN(C(=O)Nc3cnc(-c4ccccc4)cn3)CC2)c2ccccc21 [Example 2, 3-oxo-N-(5-phenyl-2-pyrazinyl)spiro[isoindoline-1,4′-piperidine]-1′-carboxamide]
2 | 194 to 196 | Cc1ccc2ccc(NC(=O)N3CCC4(CC3)NC(=O)c3ccccc34)nc2c1 [Example 3, N-(7-methyl-2-quinolyl)-3-oxospiro[isoindoline-1,4′-piperidine]-1′-carboxamide]
3 | 237 to 239 | O=C1Cc2ccccc2C2(CCN(C(=O)Nc3cnc(-c4ccccc4)cn3)CC2)N1 [Example 6, 3,4-Dihydro-3-oxo-N-(5-phenyl-2-pyrazinyl)spiro[isoquinoline-1(2H),4′-piperidine]-1′-carboxamide]
4 | 192 to 194 | O=C1Cc2ccccc2C2(CCN(C(=O)Nc3cn(-c4cccc5ccoc45)cn3)CC2)N1 [Example 13, N-[1-(7-benzo[b]furanyl)-4-imidazolyl]-3,4-dihydro-3-oxospiro[isoquinoline-1(2H),4′-piperidine]-1′-carboxamide]
5 | 161 to 163 | O=C1Cc2ccccc2C2(CCN(C(=O)Nc3cn(-c4cccc(OC(F)F)c4)cn3)CC2)N1 [Example 14, N-[1-(3-difluoromethoxyphenyl)-4-imidazolyl]-3,4-dihydro-3-oxospiro[isoquinoline-1(2H),4′-piperidine]-1′-carboxamide]
6 | 255 to 258 | O=C1Cc2ccccc2C2(CCN(C(=O)Nc3cn(-c4cccc(Cl)c4)cn3)CC2)N1 [Example 17, N-[1-(3-chlorophenyl)-4-imidazolyl]-3,4-dihydro-3-oxospiro[isoquinoline-1(2H),4′-piperidine]-1′-carboxamide]
7 | > 300 | O=C1Cc2ccccc2C2(CCN(C(=O)Nc3ncc(-c4ccccc4)s3)CC2)N1 [Example 18, 3,4-Dihydro-3-oxo-N-(5-phenyl-2-thiazolyl)spiro[isoquinoline-1(2H),4′-piperidine]-1′-carboxamide]
8 | 178 to 180 | Cc1ccc2ccc(NC(=O)N3CCC4(CC3)OC(=O)c3ccccc34)nc2c1 [Example 24, N-(7-methyl-2-quinolyl)-3-oxospiro[isobenzofuran-1(3H),4′-piperidine]-1′-carboxamide]
9 | 251 to 254 | O=C1OC2(CCN(C(=O)Nc3cn(-c4cnc5ccccc5c4)cn3)CC2)c2ccccc21 [Example 28, 3-Oxo-N-[1-(3-quinolyl)-4-imidazolyl]spiro[isobenzofuran-1(3H),4′-piperidine]-1′-carboxamide]
10 | 255 to 258 | O=C1OC2(CCN(C(=O)Nc3cc(-c4ccc(Cl)cc4)[nH]n3)CC2)c2ccccc21 [Example 30, N-[5-(4-chlorophenyl)-3-pyrazolyl]-3-oxospiro[isobenzofuran-1(3H),4′-piperidine]-1′-carboxamide]
11 | 253 to 257 | O=C1OC2(CCN(C(=O)Nc3cc(-c4cnc5ccccc5c4)[nH]n3)CC2)c2ccccc21 [Example 31, 3-oxo-N-[5-(3-quinolyl)-3-pyrazolyl]spiro[isobenzofuran-1(3H),4′-piperidine]-1′-carboxamide]
12 | 193 | O=C1OC2(CCN(C(=O)Nc3ccc4ncc(OC(F)F)cc4n3)CC2)c2ccccc21 [Example 35, N-(7-difluoromethoxypyrido[3,2-b]pyridin-2-yl)-3-oxospiro[isobenzofuran-1(3H),4′-piperidine]-1′-carboxamide]
13 | 99 to 100 | O=C1OC2(CCN(C(=O)Nc3cn(-c4cccc(CCO)c4)cn3)CC2)c2ccccc21 [Example 37, N-{1-[3-(2-hydroxyethyl)phenyl]-4-imidazolyl}-3-oxospiro[isobenzofuran-1(3H),4′-piperidine]-1′-carboxamide]
14 | 221 to 223 | CCn1ccnc1-c1ccc(NC(=O)N2CCC3(CC2)OC(=O)c2ccccc23)cc1 [Example 38, N-[4-(1-ethyl-2-imidazolyl)phenyl]-3-oxospiro[isobenzofuran-1(3H),4′-piperidine]-1′-carboxamide]
15 | 208 to 210 | COc1cccc(-n2cnc(NC(=O)N3CCC4(CC3)OC(=O)c3ccccc34)c2)c1 [Example 39, N-[1-(3-methoxyphenyl)-4-imidazolyl]-3-oxospiro[isobenzofuran-1(3H),4′-piperidine]-1′-carboxamide]

The next lines start with the molecule.

Row | SMILES | melting point [°C]
16 | Cc1ccc2ccc(NC(=O)N3CCC4(CC3)NC(=O)Cc3ccccc34)nc2c1 [Example 7, 3,4-Dihydro-N-(7-methyl-2-quinolyl)-3-oxospiro[isoquinoline-1(2H),4′-piperidine]-1′-carboxamide] | 216 to 218
17 | CC(=O)c1ccc(NC(=O)N2CCC3(CC2)NC(=O)Cc2ccccc23)cc1 [Example 8, N-(4-acetylphenyl)-3,4-dihydro-3-oxospiro[isoquinoline-1(2H),4′-piperidine]-1′-carboxamide] | > 300
18 | O=C1Cc2ccccc2C2(CCN(C(=O)Nc3ccc4c(c3)CCCC4=O)CC2)N1 [Example 10, 3,4-Dihydro-3-oxo-N-(5-oxo-5,6,7,8-tetrahydro-2-naphthyl)spiro[isoquinoline-1(2H),4′-piperidine]-1′-carboxamide] | 220.5 to 222.2
19 | CC(C)=Cc1cnc(NC(=O)N2CCC3(CC2)NC(=O)Cc2ccccc23)cn1 [Example 11, 3,4-Dihydro-N-[5-(2-methyl-1-propenyl)-2-pyrazinyl]-3-oxospiro[isoquinoline-1(2H),4′-piperidine]-1′-carboxamide] | 232.9 to 236.5
20 | O=C1Cc2ccccc2C2(CCN(C(=O)Nc3cc(-c4ccccc4)no3)CC2)N1 [Example 12, 3,4-Dihydro-3-oxo-N-(3-phenyl-5-isoxazolyl)spiro[isoquinoline-1(2H),4′-piperidine]-1′-carboxamide] | 239 to 241
21 | O=C1Cc2ccccc2C2(CCN(C(=O)Nc3ccc(C(=O)c4ccccn4)cc3)CC2)N1 [Example 15, 3,4-Dihydro-3-oxo-N-[4-(2-pyridylcarbonyl)phenyl]spiro[isoquinoline-1(2H),4′-piperidine]-1′-carboxamide] | 162 to 164
22 | O=C1Cc2ccccc2C2(CCN(C(=O)Nc3ccc(Cl)c(Cl)c3)CC2)N1 [Example 16, N-(3,4-dichlorophenyl)-3,4-dihydro-3-oxospiro[isoquinoline-1(2H),4′-piperidine]-1′-carboxamide] | > 300
23 | O=C1Cc2ccccc2C2(CCN(C(=O)Nc3cnc(-c4ccccn4)cn3)CC2)N1 [Example 19, 3,4-Dihydro-3-oxo-N-[5-(2-pyridyl)-2-pyrazinyl]spiro[isoquinoline-1(2H),4′-piperidine]-1′-carboxamide] | 223 to 225
24 | Cc1cccc2sc(NC(=O)N3CCC4(CC3)NC(=O)Cc3ccccc34)nc12 [Example 20, 3,4-Dihydro-N-(4-methyl-2-benzothiazolyl)-3-oxospiro[isoquinoline-1(2H),4′-piperidine]-1′-carboxamide] | 144 to 146
25 | O=C1Cc2ccccc2C2(CCN(C(=O)Nc3nc4cc(Cl)ccc4o3)CC2)N1 [Example 21, N-(5-chloro-2-benzoxazolyl)-3,4-dihydro-3-oxospiro[isoquinoline-1(2H),4′-piperidine]-1′-carboxamide] | 256 to 258
